Source: PMC11909056, “Investigation of cholinesterase and α-glucosidase enzyme activities, and molecular docking and dft studies for 1,2-disubstituted cyclopentane derivatives with phenyl and benzyl units” (Molecular Diversity, 2024)

Experiments:
[1] = target: T1, Butyrylcholinesterase (BChE) (Equus caballus, UniProt P81908); assay: biochemical
T1 construct: Butyrylcholinesterase from equine serum (CAS No.: 9001–08-5); from tissue; host or cells: equine serum
Method: (§1) The Ellman approach was employed to examine the impact of synthetic chemicals on the ability to inhibit AChE and BChE activity. AChI/BChI and DTNB were used to quantify the AChE/BChE activity. […] For different concentrations of the sample solution, 100 μL of buffer (1 M, Tris/HCl, pH 8.0) were used to dissolve 10 μL of the sample solution. […] The incubation was followed by the addition of DTNB (50 μL, 0.5 mM). Lastly, to start the reaction, 50 μL of bChI/aChI were added. […] Then, the activities of AChE/BChE were evaluated.

[2] = target: Acetylcholinesterase (AChE) (Electrophorus electricus, UniProt O42275); assay: biochemical
Chain of Acetylcholinesterase (AChE) (O42275 24-633): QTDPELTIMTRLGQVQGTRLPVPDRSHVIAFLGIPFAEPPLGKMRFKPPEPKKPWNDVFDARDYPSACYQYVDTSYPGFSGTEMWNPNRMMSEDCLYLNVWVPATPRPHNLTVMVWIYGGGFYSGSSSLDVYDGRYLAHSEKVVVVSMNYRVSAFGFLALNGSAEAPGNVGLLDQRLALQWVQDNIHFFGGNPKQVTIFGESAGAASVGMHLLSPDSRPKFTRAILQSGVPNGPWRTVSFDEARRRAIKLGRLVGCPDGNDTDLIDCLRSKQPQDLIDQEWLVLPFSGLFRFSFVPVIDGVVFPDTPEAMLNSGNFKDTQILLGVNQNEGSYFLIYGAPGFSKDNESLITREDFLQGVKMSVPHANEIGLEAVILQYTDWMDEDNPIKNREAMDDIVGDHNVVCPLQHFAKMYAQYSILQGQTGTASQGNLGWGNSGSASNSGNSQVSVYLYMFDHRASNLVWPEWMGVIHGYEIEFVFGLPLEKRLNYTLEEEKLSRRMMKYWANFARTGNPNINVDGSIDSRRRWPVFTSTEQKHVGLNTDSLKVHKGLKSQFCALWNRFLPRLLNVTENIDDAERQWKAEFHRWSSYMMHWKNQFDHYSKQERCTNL
Method: as §1

α-Glucosidase = α-Glucosidase (Saccharomyces cerevisiae, UniProt P53341); assay: α-glucosidase inhibition with p-NPG substrate (Tao et al. method); format: biochemical
Chain of α-Glucosidase (P53341 whole entry): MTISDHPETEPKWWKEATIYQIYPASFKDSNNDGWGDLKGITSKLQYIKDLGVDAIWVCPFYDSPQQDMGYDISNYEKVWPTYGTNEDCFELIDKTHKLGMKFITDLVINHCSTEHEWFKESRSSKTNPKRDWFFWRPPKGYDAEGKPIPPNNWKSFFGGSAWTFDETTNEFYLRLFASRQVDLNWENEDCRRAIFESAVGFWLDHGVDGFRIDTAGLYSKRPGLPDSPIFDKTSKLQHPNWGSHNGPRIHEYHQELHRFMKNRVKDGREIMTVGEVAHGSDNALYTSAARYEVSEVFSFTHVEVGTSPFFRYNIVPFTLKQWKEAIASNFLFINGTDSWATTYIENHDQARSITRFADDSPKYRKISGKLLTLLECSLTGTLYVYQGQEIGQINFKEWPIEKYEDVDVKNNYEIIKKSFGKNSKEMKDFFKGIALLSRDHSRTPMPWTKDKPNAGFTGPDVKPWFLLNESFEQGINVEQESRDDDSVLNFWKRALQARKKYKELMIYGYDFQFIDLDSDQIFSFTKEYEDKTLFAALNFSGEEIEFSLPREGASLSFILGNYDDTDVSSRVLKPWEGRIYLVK
Method: Samples were made by dissolving 20 mg in 20 mL (EtOH:H2O). It was initially combined in 5–200 μL of sample with 700 μL of phosphate buffer (0.15 u/mL, pH 7.4) and 20 μL of enzyme solution [31, 32]. After a pre-incubation period of 10 min at 35 °C, 50 μL of p-NPG was added as the reaction began. Additionally, following the pre-incubation, 50 μL of p-NPG in phosphate buffer (5 mM, pH = 7.4) was added, and the incubation was repeated at 35 °C. A curve was fitted to the data to determine the IC50 and Ki values. […] (pH: 7.4).

T1 sequence (P81908 whole entry): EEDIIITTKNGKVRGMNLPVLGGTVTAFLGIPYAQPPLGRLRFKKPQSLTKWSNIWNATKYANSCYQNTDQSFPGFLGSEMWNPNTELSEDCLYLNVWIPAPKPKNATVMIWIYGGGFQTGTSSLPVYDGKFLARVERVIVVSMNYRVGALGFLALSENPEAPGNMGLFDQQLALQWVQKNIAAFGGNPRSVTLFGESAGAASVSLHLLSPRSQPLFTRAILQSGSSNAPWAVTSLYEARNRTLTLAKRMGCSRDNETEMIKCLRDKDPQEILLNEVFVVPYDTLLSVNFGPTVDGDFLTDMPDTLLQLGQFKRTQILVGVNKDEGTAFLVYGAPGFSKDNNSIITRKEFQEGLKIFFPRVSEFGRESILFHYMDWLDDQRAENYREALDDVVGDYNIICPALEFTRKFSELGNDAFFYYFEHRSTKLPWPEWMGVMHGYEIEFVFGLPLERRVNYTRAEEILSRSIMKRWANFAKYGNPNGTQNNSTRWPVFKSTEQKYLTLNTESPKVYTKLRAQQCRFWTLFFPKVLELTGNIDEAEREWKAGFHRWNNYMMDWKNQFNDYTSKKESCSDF

| Structure (SMILES) | IC50 [1] [nM] | Ki [1] [nM] | IC50 [2] [nM] | Ki [2] [nM] | IC50 (α-Glucosidase) [nM] | Ki (α-Glucosidase) [nM] |
| --- | --- | --- | --- | --- | --- | --- |
| COc1ccc(C2=C(/C(=N/NC(C)=O)c3ccc(OC)c(OC)c3OC)CCC2)c(OC)c1OC [Compound 10, (Z)-N'-((2,3,4-Trimethoxyphenyl)(2-(2,3,4-trimethoxyphenyl)cyclopent-1-en-1-yl)methylene)acetohydrazide] | 135 | 131 ± 14.5 | 205 | 196 ± 13.7 | 28.4 | 31.2 ± 5.54 |
| COc1ccc(C(=O)C2CCC=C2c2ccc(OC)c(OC)c2OC)c(OC)c1OC (stereo not drawn) [Compound 5] | 187 | 176 ± 23.8 | 92.2 | 87.9 ± 7.27 | 39.6 | 44.7 ± 6.61 |
| COc1c(Br)cc(C2CCCC2Cc2c(Br)c(Br)c(OC)c(OC)c2OC)c(OC)c1OC (stereo not drawn) [Compound 13, 1,2-Dibromo-3-((2-(5-bromo-2,3,4-trimethoxyphenyl)cyclopentyl)methyl)-4,5,6-trimethoxybenzene] | 217 | 205 ± 17.4 | 124 | 108 ± 5.14 | 31.6 | 35.6 ± 3.95 |
| COc1ccc(CC2CCCC2c2ccc(OC)c(OC)c2OC)c(OC)c1OC (stereo not drawn) [Compound 11, 1,2,3-Trimethoxy-4-(2-(2,3,4-trimethoxybenzyl)cyclopentyl)benzene] | 155 | 145 ± 15.5 | 170 | 151 ± 13.3 | 33.4 | 38.1 ± 5.48 |
| COc1c(Br)cc(C(=O)C(Br)CCC(Br)C(=O)c2cc(Br)c(OC)c(OC)c2O)c(O)c1OC (stereo not drawn) [Compound 9] | 450 | 428 ± 27.4 | 49.8 | 45.5 ± 7.35 | 21.1 | 25.5 ± 4.46 |
| COc1ccc(C(=O)CCCCC(=O)c2ccc(OC)c(OC)c2OC)c(O)c1OC [Compound 7] | 646 | 622 ± 35.1 | 644 | 632 ± 18.9 | 43.2 | 46.5 ± 6.34 |
| COc1ccc(C(=O)CCCCC(=O)c2ccc(OC)c(OC)c2O)c(O)c1OC [Compound 8] | 222 | 209 ± 14.7 | 174 | 171 ± 14.1 | 36.4 | 38.5 ± 4.25 |
| COc1c(Br)c(Br)c(CC2CCCC2c2c(Br)c(Br)c(OC)c(OC)c2OC)c(OC)c1OC (stereo not drawn) [Compound 12, 1,2-Dibromo-3-(2-(2,3-dibromo-4,5,6-trimethoxybenzyl)cyclopentyl)-4,5,6-trimethoxybenzene] | 92.7 | 84.3 ± 9.92 | 65.5 | 61.1 ± 5.26 | 23.9 | 27.4 ± 5.17 |
| COc1ccc(C(=O)C2=C(c3ccc(OC)c(OC)c3OC)CCC2)c(OC)c1OC [Compound 4, (2,3,4-trimethoxyphenyl)(2-(2,3,4-trimethoxyphenyl)cyclopent-1-en-1-yl)methanone] | 414 | 403 ± 32.3 | 102 | 99.7 ± 11.4 | 41.6 | 48.9 ± 7.33 |
| COc1ccc(C(=O)CCCCC(=O)c2ccc(OC)c(OC)c2OC)c(OC)c1OC [Compound 6] | 225 | 212 ± 13.7 | 189 | 177 ± 22.6 | 27.2 | 29.1 ± 4.25 |
